{"source": "patent US20220187282A1", "about": "“CARDIOMYOCYTE PROLIFERATION” (The Council of the Queensland Institute of Medical Research, priority 2019, published 2022)", "key": {"[1]": {"system": "kinases", "conditions": "Fan et al., 2016; cited from earlier work"}, "[2]": {"system": "mature hCOs", "experiment": "mature hCO, cardiomyocyte proliferation (Ki-67 intensity, Ki-67+ α-actinin cardiomyocytes)", "type": "cell-based, human", "description": "hCOs were cultured in CTRL medium for formation for 5 days and then either kept in CTRL medium culture or changed to maturation medium (Mills et al., 2017a) comprising DMEM without glucose, glutamine and phenol red (ThermoFisher Scientific) supplemented with 4% […](without insulin) (ThermoFisher Scientific), 1% GlutaMAX (ThermoFisher Scientific), 200 μM L-ascorbic acid 2-phosphate sesquimagnesium salt hydrate and 1% Penicillin/Streptomycin (ThermoFisher Scientific), 1 mmol/L glucose and 100 μmon palmitic acid (conjugated to bovine serum albumin within B27 by incubating for 2h at 37° C., Sigma) with changes every 2-3 days.\nWhole-Mount Immunostaining hCOs were fixed for 60 min with 1% paraformaldehyde (Sigma) at room temperature and washed 3× with PBS, after which they were incubated with primary antibodies (see Star Methods Table) in Blocking Buffer, 5% FBS and 0.2% Triton-X-100 (Sigma) in PBS overnight at 4° C. Cells were then washed in Blocking Buffer 2× for 2 h and subsequently incubated with secondary antibodies (see Star Methods Table) and Hoechst33342 (1:1000) overnight at 4° C. They were washed in Blocking Buffer 2× for 2 h and imaged in situ or mounted on microscope slides using Fluoromount-G (Southern Biotech).\nFor screening hCOs were imaged using a Leica DMi8 high content imaging microscope for in situ imaging. Custom batch processing files were written in Matlab R2013a (Mathworks) to remove the background, calculate the image intensity, and export the batch data to an Excel (Microsoft) spreadsheet.\nFor more detailed images an Olympus IX81 confocal microscope was used for mounted hCO imaging. For cell cycle analysis experiments 3 random fields of view were imaged and manually quantified for proliferation. These were added together to calculate the percentage of hPSC-CM proliferation in each hCO.\nHits were next validated in mature hCOs using a targeted concentration range based on their active concentrations in the initial immature hCO screen (FIG. 3A). Proliferation markers were quantified using high magnification confocal imaging as we found flow cytometry to be inaccurate in hCO (data not shown). Compounds 3, 63 and 65 had no impact on contractile force (FIG. 3B) at concentrations of 3 μM, 0.3 μM and 1 μM, respectively. […] The effects of both compound 3 and compound 65 were reversible, with proliferation ceasing within 5 days of compound withdrawal (FIG. 8B). Therefore, compound 3 (FIG. 3G) and compound 65 (Goldberg et al., 2009) (FIG. 3H) are both capable of inducing bona fide cardiomyocyte proliferation in mature hCOs without adversely affecting contractile properties."}, "[3]": {"system": "adult rodent cardiomyocyte", "conditions": "Mohamed et al., 2018; cited from earlier work"}, "[4]": {"system": "2D hPSC-CM", "experiment": "2D hPSC-CM culture, Ki-67 image cytometry (proliferation, number, size)", "type": "cell-based, human", "conditions": "24 h, 0.5 M mevalonic acid 5-phosphate, 20 μM GGPP, 20 μM FPP, 20 μM squalene", "description": "Day 15 dissociated differentiation cultures were plated at 100,000 cells/cm2 in 0.1% gelatin coated 96-well tissue culture plates in CTRL medium. For 3 day incubation experiments, after 2 days of culture in CTRL medium, cells were then treated with 10 μM simvastatin in maturation medium for a further 3 days. For 1 day incubation experiments, after 1 day of culture in CTRL medium, cells were treated with 10 μM simvastatin, 0.5 M (±)-Mevalonic acid 5-phosphate lithium salt hydrate, 20 μM geranylgeranyl pyrophosphate, 20 μM farnesyl pyrophosphate and/or 20 μM squalene in maturation medium for a further day.\nhCOs were fixed for 10 min with 1% paraformaldehyde (Sigma) at room temperature and washed 3× with PBS, after which they were incubated with primary antibodies (see Star Methods Table) in Blocking Buffer, 5% FBS and 0.2% Triton-X-100 (Sigma) in PBS for 1-2 hours at room temperature. Cells were then washed in Blocking Buffer 2× for 3 min and subsequently incubated with secondary antibodies (see Star Methods Table) and Hoechst33342 (1:1000) for 1 hour at room temperature. They were washed in Blocking Buffer 2× and imaged.\nFor screening hCOs were imaged using a Leica DMi8 high content imaging microscope for in situ imaging. Custom batch processing files were written in Matlab R2013a (Mathworks) to analyse the number of cardiomyocytes, identify the nuclei of proliferating (Ki-67+) cardiomyocytes and determine the average size of the cardiomyocytes, and export the batch data to an Excel (Microsoft) spreadsheet.\nInitial experiments were performed in immature proliferative 2D hPSC-CM (FIG. 6A) using high content imaging (FIG. 6B) and image cytometry analysis (FIG. 13A). HMGCR mediated production of cholesterol metabolites was inhibited with 10 μM simvastatin for 3 days.\nIn order to determine which metabolites in the mevalonate pathway are critical for proliferation, we performed experiments over 24 hours to enable more precise control of metabolites and to measure the primary effects of the manipulations. In these experiments, the mevalonate pathway was inhibited using 10 μM simvastatin, and then different metabolites were provided within the medium (highlighted in red in FIG. 6F)."}, "[5]": {"system": "mature hCO", "experiment": "single organoid quantitative proteomics of mature hCO", "type": "cell-based, human", "conditions": "mature hCO proteomics", "description": "Single hCO were washed 2× in PBS and snap frozen and stored at −80° C. Tissues were lysed in by tip-probe sonication in 1% SDS containing 100 mM Tris pH 8.0, 10 mM tris(2-carboxyethyl)phosphine, 40 mM 2-chloroacetamide and heated to 95° C. for 5 min. Proteins were purified using a modified Single-Pot Solid-Phase-enhanced Sample Preparation (SP3) strategy (Hughes et al., 2014). Briefly, Proteins were bound to Sera-Mag carboxylate coated paramagnetic beads in 50% acetonitrile containing 0.8% formic acid (v/v) (ThermoFisher Scientific). The beads were washed twice with 70% ethanol (v/v) and once with 100% acetonitrile. Proteins were digested on the beads in 100 mM Tris pH 7.5 containing 10% 2,2,2-Trifluoroethanol overnight at 37° C. with 200 ng of sequencing grade LysC (Wako Chemicals) and trypsin (Sigma). Beads were removed and peptides acidified to 1% trifluoroacetic acid prior to purification by styrene divinyl benzene-reversed phase sulfonated solid phase extraction microcolumns. Peptides were spiked with iRT peptides (Biognosys) and analysed on an Easy-nLC1200 coupled to a Q-Exactive HF in positive polarity mode. Peptides were separated using an in-house packed 75 μm×50 cm pulled column (1.9 μm particle size, C18AQ; Dr Maisch) with a gradient of 2-35% acetonitrile containing 0.1% FA over 120 min at 300 nL/min at 60° C. The instrument was operated in data-independent acquisition (DIA) mode essentially as described previously (Bruderer et al., 2017). Briefly, an MS1 scan was acquired from 350-1650 m/z (120,000 resolution, 3e6 AGC, 50 ms injection time) followed by 20 MS/MS variable sized isolation windows with HCD (30,000 resolution, 3e6 AGC, 27 NCE). A spectral library was created by fractionating a pooled mix of peptides from 10 separate hCO on an inhouse packed 320 μm×25 cm column (3 μm particle size, BEH; Waters) with a gradient of 2-40% acetonitrile containing 10 mM ammonium formate over 60 min at 6 μL/min using an Agilent 1260 HPLC. A total of 12 concatenated fractions were analysed using the identical LC-MS/MS conditions above except the instrument was operated in data-dependent acquisition (DDA) mode. Briefly, an MS1 scan was acquired from 350-1650 m/z (60,000 resolution, 3e6 AGC, 50 ms injection time) followed by 20 MS/MS with HCD (1.4 m/z isolation, 15,000 resolution, 1e5 AGC, 27 NCE). DDA data were processed with Andromeda in MaxQuant v1.5.8.3 (Cox and Mann, 2008) against the human UniProt database (January 2016) using all default settings with peptide spectral matches and protein false discovery rate (FDR) set to 1%. DIA data were processed with Spectronaut v11 (Bruderer et al., 2015) using all default settings with precursor and protein FDR set to 1% and quantification performed at MS2.\nProteomic data were Log 2 transformed and median normalised. Removal of unwanted variation method (RUV) was applied to remove any batch effects (Gagnon-Bartsch et al., 2013). Differential abundance was determined with two sample t-tests with FDR-based multiple hypothesis testing correction. GO analysis was performed with DAVID v6.8 and gene ontology terms from BP_FAT (Huang da et al., 2009) and heat-maps and hierarchical clustering was performed using GENE-E (Broad Institute).\nIn order to determine the biological processes driving the pro-proliferative effects of our hit compounds, we performed RNA-sequencing (RNA-seq) and single organoid quantitative proteomics (FIG. 4A). These analyses were performed on hCOs treated with compounds 3, 63 and 65 at concentrations of 3 μM, 0.3 μM and 1 μM, respectively. RNA-seq for hCO treated with compounds 3 and 65 clustered distinctly in principal component analysis (FIG. 4B) and regulated a total of 239 and 207 genes (FIG. 9A), respectively."}}, "note": "Counter-ions that a name gives are not always drawn.", "data": [{"smiles": "CN1C(=O)c2sccc2N(C)c2nc(Nc3ccc(S(N)(=O)=O)cc3)ncc21", "note": "[XMU-MP-1, reference compound]", "values": [{"measurement": "off-target effects on cell cycle proteins", "setting": "[1]", "result": "PLK4 and AURKB"}, {"measurement": "proliferation in mature hCO in combination with GSK3 inhibition (Ki-67 intensity)", "setting": "[2]; 5 μM CHIR99021 with 1 μM compound 51 or 1 μM XMU-MP-1", "result": "synergistic effect on proliferation"}]}, {"smiles": "NC(=O)c1ccc(-c2nc(-c3ccc4c(c3)OCO4)c(-c3ccccn3)[nH]2)cc1", "note": "[SB431542]", "values": [{"measurement": "pro-proliferative activity alone", "setting": "[3]", "result": "not sufficient"}]}, {"smiles": "CC(C)=CCC/C(C)=C/CC/C(C)=C/CC/C(C)=C/COP(=O)(O)OP(=O)(O)O", "note": "[geranylgeranyl pyrophosphate]", "values": [{"measurement": "rescue of proliferation under 10 μM simvastatin", "setting": "[4]", "result": "rescued proliferation"}]}, {"smiles": "CC(O)(CCOP(=O)(O)O)CC(=O)O", "note": "(racemic) [mevalonate, (±)-Mevalonic acid 5-phosphate lithium salt hydrate, reference compound]", "values": [{"measurement": "rescue of proliferation under 10 μM simvastatin", "setting": "[4]", "result": "rescued proliferation"}, {"measurement": "proliferation in mature hCO", "setting": "[2]; 0.5 mM, 2 days", "result": "induces proliferation"}]}, {"smiles": "Cc1c[nH]c(-c2cnc(NCCNc3ccc(C#N)cn3)nc2-c2ccc(Cl)cc2Cl)n1", "note": "[CHIR99021, reference compound]", "values": [{"measurement": "proliferation signature proteins (cell cycle network, mevalonate enzymes, nuclear transporters)", "setting": "[5]", "result": "only the “cell cycle network” proteins were induced"}, {"measurement": "proliferation in mature hCO, compound individually", "setting": "[2]; 5 μM CHIR99021 or 1 μM compound 51 alone", "result": "failed to activate proliferation individually"}]}, {"smiles": "CC(C)=CCC/C(C)=C/CC/C(C)=C/COP(=O)(O)OP(=O)(O)O", "note": "[farnesyl pyrophosphate]", "values": [{"measurement": "rescue of proliferation under 10 μM simvastatin", "setting": "[4]", "result": "incapable of rescuing proliferation"}]}, {"smiles": "CC(C)=CCC/C(C)=C/CC/C(C)=C/CC/C=C(\\C)CC/C=C(\\C)CCC=C(C)C", "note": "[squalene]", "values": [{"measurement": "rescue of proliferation under 10 μM simvastatin", "setting": "[4]", "result": "not"}]}]}
